# Test results published in patent publication US6893846B2, “Primers for use in detecting beta-lactamases” (priority 1998, dated 2005).
# Like-named read-outs stand apart in the source and are kept apart here.
# Tests used:
# [1] = test system: E. coli; test: Agar dilution MIC, South African isolates; assay type: cell-based, Escherichia coli; conditions: tzp with tazobactam 4 μg/ml
# Excerpt: (§1) The strains were provided in response to a request for all strains of Enterobacteriaceae, lacking inducible beta-lactamases, that were intermediate or resistant to cefotaxime or ceftazidime. […]
# [2] = biological target: single beta-lactamase in K. pneumoniae cell extracts (Klebsiella pneumoniae, UniProt P0AD64, E235K/G234S); test: Spectrophotometric hydrolysis assay on crude beta-lactamase extracts; conditions: K. pneumoniae Pit 82 extract, beta-lactamase pI 8.2; 100 μM substrate
# [3] = biological target: single beta-lactamase in K. pneumoniae cell extracts (Klebsiella pneumoniae, UniProt P0AD64, G234S); test: as above; conditions: K. pneumoniae Pit 100 extract, beta-lactamase pI 7.6; 100 μM substrate
# [4] = biological target: single beta-lactamase in K. pneumoniae cell extracts (Escherichia coli, UniProt P62593, E102K/R162S); test: as above; conditions: K. pneumoniae Pit 16 extract, beta-lactamase pI 5.6; 100 μM substrate
# [5] = test system: P. mirabilis; test: Agar dilution MIC, South African isolates; assay type: cell-based, Proteus mirabilis; conditions: 4 strains, tzp with tazobactam 4 μg/ml
# Excerpt: During a period of three months in 1993, […] strains of Klebsiella pneumoniae (13 blood, 5 burn, 7 wound, 11 tracheal isolates), 4 strains of Proteus mirabilis (all wound isolates) and 4 strains of Escherichia coli (1 blood, 1 burn, 2 wound isolates) were collected from patients at the following medical centers in South Africa: Tygerberg Hospital near Cape Town, King Edward VIII Hospital in Durban, Chris Hani Baragwanath Hospital in Soweto and Pretoria Academic Hospital in Pretoria. The strains were provided in response to a request for all strains of Enterobacteriaceae, lacking inducible beta-lactamases, that were intermediate or resistant to cefotaxime or ceftazidime. […] Therefore accurate prevalence data were not obtained.
# Antibiotic susceptibility was determined by standard disk diffusion (NCCLS Standard M2-T4, 1994) and agar dilution (NCCLS Standard M7-T2, 1994) procedures. Standard powders of antimicrobial agents were kindly provided by the following companies: piperacillin and tazobactam (Lederle Laboratories, Wayne, N.J.); cefoxitin and imipenem, (Merck, Rathway, N.J.); cefotaxime, (Hoechst-Roussel Pharmaceuticals Inc., Somerville, N.J.); ceftazidime, (Glaxo Group Research Ltd., Greenford, England); aztreonam and cefepime, (Bristol-Myers Squibb, Princeton, N.J.). Disks for agar diffusion were obtained from Becton Dickinson Microbiology Systems (Cockeysville, Md.). For quality control purposes, the following quality control strains were run simultaneously with the test organisms E. coli ATCC 25922, Pseudomonas aeruginosa ATCC 27853, E. coli ATCC 35218, and Staphylococcus aureus ATCC 29213. Throughout this study, results were interpreted using NCCLS criteria for disk diffusion (NCCLS Standard M2-T4, 1994) and broth dilution (NCCLS Standard M7-T2, 1994).
# [6] = test system: E. coli HB101 transformant (17 kb plasmid); conditions: disk diffusion, Tr (17 kb) = transformant E. coli HB101
# [7] = biological target: single beta-lactamase in P. mirabilis cell extracts (Escherichia coli, UniProt P62593, E102K/R162S); test: Spectrophotometric hydrolysis assay on crude beta-lactamase extracts; conditions: P. mirabilis Pit 85 extract, beta-lactamase pI 5.6; 100 μM substrate
# [8] = test system: K. pneumoniae 225; test: NCCLS microdilution susceptibility test; assay type: cell-based, Klebsiella pneumoniae; conditions: Klebsiella pneumoniae, 225
# [9] = test system: K. pneumoniae 225; test: Three-dimensional test (enzymatic inactivation of antibiotics); conditions: beta-lactamase-mediated hydrolysis by K. pneumoniae 225, lawn E. coli ATCC 25922
# [10] = test system: E. coli C600 transconjugant; conditions: disk diffusion, Tc = transconjugate E. coli C600
# [11] = test system: K. pneumoniae 225; test: NCCLS disk diffusion assay; assay type: cell-based, Klebsiella pneumoniae; conditions: disk diffusion, Kleb 225
# [12] = test system: E. coli C600N transconjugants; test: Susceptibility of transconjugants; assay type: cell-based, Escherichia coli; conditions: E. coli C600N transconjugants of E. aerogenes 187, 200, 220, 184
# Experimental: Antibiotic susceptibilities were determined by standard disk-diffusion (NCCLS Standard M2-A6) and agar-dilution (NCCLS Standard M7-A4) procedures. Disks were obtained from Becton Dickinson Microbiology Systems (Cockeysville, Md.). Disk-diffusion susceptibilities to the following antibiotics were determined, ampicillin; amoxicillin clavulanic acid; aztreonam; cefazolin; cefoxitin; cefuroxime; cefotaxime; ceftriaxone; ceftazidime; cefepime; imipenem; gentamicin; trimethoprim/sulfamethoxazole and ciprofloxacin. […] The following quality control strains were run simultaneously with the test organisms Escherichia coli ATCC 25922, Pseudomonas aeruginosa ATCC 27853, and E. coli ATCC 35218. Throughout this study, results were interpreted using NCCLS criteria for disk diffusion (NCCLS M2-A6) and broth dilution (NCCLS M7-A4).
# […]. The filter paper mating technique with overnight incubation at 37° C. were performed as described previously (Philippon et al., Antimicrob. Agents Chemother., 33:1131-1136 (1989)). Transconjugants were selected on LB (Luria Bertani) agar [Difco (Detroit, Mich.)] plates containing 12 μg per ml nalidixic acid and 20 μg per ml ampicillin.
# [13] = test system: K. pneumoniae 225; conditions: test drug disk around amoxicillin-clavulanate disk
# [14] = test system: E. aerogenes; assay type: cell-based, Enterobacter aerogenes
# Experimental: Antibiotic susceptibilities were determined by standard disk-diffusion (NCCLS Standard M2-A6) and agar-dilution (NCCLS Standard M7-A4) procedures. Disks were obtained from Becton Dickinson Microbiology Systems (Cockeysville, Md.). […] Throughout this study, results were interpreted using NCCLS criteria for disk diffusion (NCCLS M2-A6) and broth dilution (NCCLS M7-A4).
# [15] = biological target: single beta-lactamase in E. coli cell extracts (Escherichia coli, UniProt P62593, E102K/R162S); test: Spectrophotometric hydrolysis assay on crude beta-lactamase extracts; conditions: E. coli Pit 64 extract, beta-lactamase pI 5.6; 100 μM substrate
# [16] = test system: E. aerogenes; test: Vitek automated susceptibility system; assay type: cell-based, Enterobacter aerogenes; conditions: the 31 selected E. aerogenes strains
# Excerpt: Among all E. aerogenes recovered from clinical specimens during an eighteen month period (September 1993 to March 1995), thirty-one E. aerogenes strains showing a resistance phenotype different from that observed with derepressed mutants normally encountered at the Hunter Holmes McGuire Medical Center, Richmond, Va. were selected for this study. The strains selected were intermediate to ceftriaxone but resistant to ceftazidime when tested with the Vitek automated susceptibility system (bioMerieux Vitek, St. Louis, Mo.). Derepressed mutants previously isolated from this center were usually resistant to both ceftriaxone and ceftazidime.
# [17] = test system: K. pneumoniae; test: Agar dilution MIC, South African isolates; assay type: cell-based, Klebsiella pneumoniae; conditions: tzp with tazobactam 4 μg/ml
# Excerpt: as §1
# [18] = test system: beta-lactamases in sonic extracts of E. coli; test: Isoelectric focusing overlay: cefotaxime hydrolysis and inhibitors
# [19] = biological target: beta-lactamases in sonic extracts of E. coli (Escherichia coli, UniProt P62593); test: as above
# [20] = test system: beta-lactamases in sonic extracts of E. aerogenes; test: Isoelectric focusing overlay: cefotaxime hydrolysis, inhibitors, induction
# [21] = biological target: beta-lactamases in sonic extracts of K. pneumoniae (Escherichia coli, UniProt P62593)
# [22] = biological target: beta-lactamases in sonic extracts of K. pneumoniae (Klebsiella pneumoniae, UniProt P0AD64); conditions: Kpn1, beta-lactamase pI 7.6 (SHV-1)
# [23] = test system: beta-lactamases in sonic extracts of K. pneumoniae
# [24] = biological target: beta-lactamases in sonic extracts of K. pneumoniae (Klebsiella pneumoniae, UniProt P0AD64, E235K/G234S); conditions: Kpn2, beta-lactamase pI 8.2 (SHV-5)
# [25] = Ec1, beta-lactamase pI 5.6 (TEM-10 or 26)
# [26] = Ec2, beta-lactamase pI 7.6 (SHV-2 or 8)
# [27] = Ec1, beta-lactamase pI 5.4 (TEM-1)
# [28] = Ec2, beta-lactamase pI 5.4 (TEM-1)
# [29] = SHV-3 strain (1), Bush group 1 enzyme pI 8.3
# [30] = SHV-3 strain (1), Bush group 2be enzyme pI 6.9
# [31] = SHV-4 strains (29), Bush group 1 enzyme pI 8.3
# [32] = SHV-4 strains (29), Bush group 2be enzyme pI 7.8
# [33] = SHV-5 strain (1), Bush group 1 enzyme pI 8.3
# [34] = SHV-5 strain (1), Bush group 2Be enzyme pI 8.0
# [35] = Kpn2, beta-lactamase pI 5.4 (TEM-1)
# [36] = Kpn3, beta-lactamase pI 5.4 (TEM-1)
# [37] = Kpn1, beta-lactamase pI 5.6 (TEM-10 or 26)
# [38] = Kpn2, beta-lactamase pI 7.6 (SHV-2 or 8)
# [39] = Kpn3, beta-lactamase pI 8.0 (AmpC)
smiles,measurement,setting,value
CC(C)(O/N=C(\C(=O)N[C@@H]1C(=O)N2C(C(=O)[O-])=C(C[n+]3ccccc3)CS[C@H]12)c1csc(N)n1)C(=O)O [ceftazidime],MIC range,"[1]; resistance phenotype Ec1, 3 strains",>128 µg/mL
same,MIC range,"[1]; resistance phenotype Ec2, 1 strain",4 µg/mL
same,Hydrolysis,[2],0.2 nmol of substrate hydrolyzed/m
same,Hydrolysis,[3],0.1 nmol of substrate hydrolyzed/m
same,Hydrolysis,[4],3 nmol of substrate hydrolyzed/m
same,MIC range,[5],16 to 64 µg/mL
same,Zone Size,[6],33 mm
same,Hydrolysis,[7],1 nmol of substrate hydrolyzed/m
same,MIC,[8],> 64 µg/mL
same,three dimensional test,[9],positive
same,Zone Size,[10],7 mm
same,Zone Size,[11],8 mm
same,susceptibility after transfer of plasmids encoding SHV beta-lactamase genes,[12],decreased susceptibility
same,clavulanate double-disk potentiation test,[13],positive
same,MIC range,[14]; 1 E. aerogenes strain with Bush group 1 and group 2be (SHV-3) enzymes,4 µg/mL
same,MIC range,[14]; 1 E. aerogenes strain with Bush group 1 and group 2be (SHV-5) enzymes,32 µg/mL
same,MIC range,[14]; 29 E. aerogenes strains with Bush group 1 and group 2be (SHV-4) enzymes,8 to 32 µg/mL
same,susceptibility by MIC,[14]; all E. aerogenes strains,decreased susceptibility
same,Hydrolysis,[15],2 nmol of substrate hydrolyzed/m
same,Vitek susceptibility result,[16],resistant
same,MIC range,"[17]; resistance phenotype Kpn1, 8 strains",>128 µg/mL
same,MIC range,"[17]; resistance phenotype Kpn2, 28 strains",4 to 128 µg/mL
same,MIC range,"[17]; resistance phenotype Kpn3 (K. pneumoniae Pit 68), 1 strain, listed as caz",4 µg/mL
O=C(O)[C@H]1/C(=C/CO)O[C@@H]2CC(=O)N21 [clavulanate],Inhibited by,[18]; [25],Yes
same,Inhibited by,[18]; [26],Yes
same,Inhibited by,[19]; [27],Yes
same,Inhibited by,[19]; [28],Yes
same,Inhibited by,[20]; [29],no
same,Inhibited by,[20]; [30],yes
same,Inhibited by,[20]; [31],no
same,Inhibited by,[20]; [32],yes
same,Inhibited by,[20]; [33],no
same,Inhibited by,[20]; [34],yes
same,Inhibited by,[21]; [35],Yes
same,Inhibited by,[21]; [36],Yes
same,Inhibited by,[22],Yes
same,Inhibited by,[23]; [37],Yes
same,Inhibited by,[23]; [38],Yes
same,Inhibited by,[23]; [39],No
same,Inhibited by,[24],No
Cc1onc(-c2ccccc2Cl)c1C(=O)N[C@@H]1C(=O)N2[C@@H]1SC(C)(C)[C@@H]2C(=O)O [cloxacillin],Inhibited by,[18]; [25],No
same,Inhibited by,[18]; [26],No
same,Inhibited by,[19]; [27],No
same,Inhibited by,[19]; [28],No
same,Inhibited by,[20]; [29],yes
same,Inhibited by,[20]; [30],no
same,Inhibited by,[20]; [31],yes
same,Inhibited by,[20]; [32],no
same,Inhibited by,[20]; [33],yes
same,Inhibited by,[20]; [34],no
same,Inhibited by,[21]; [35],No
same,Inhibited by,[21]; [36],No
same,Inhibited by,[22],No
same,Inhibited by,[23]; [37],No
same,Inhibited by,[23]; [38],No
same,Inhibited by,[23]; [39],Yes
same,Inhibited by,[24],Yes
